Results published in patent publication US20230295152A1 (SENDA BIOSCIENCES, INC., priority 2019, published 2023).

Molecular target: T1, AHR (Homo sapiens, UniProt P35869)
T1 construct: other cell line with a DRE-luciferase reporter stably transfected; endogenous in cells; host or cells: HepG2 AhR-Lucia reporter cells
T1 sequence (P35869 11-848): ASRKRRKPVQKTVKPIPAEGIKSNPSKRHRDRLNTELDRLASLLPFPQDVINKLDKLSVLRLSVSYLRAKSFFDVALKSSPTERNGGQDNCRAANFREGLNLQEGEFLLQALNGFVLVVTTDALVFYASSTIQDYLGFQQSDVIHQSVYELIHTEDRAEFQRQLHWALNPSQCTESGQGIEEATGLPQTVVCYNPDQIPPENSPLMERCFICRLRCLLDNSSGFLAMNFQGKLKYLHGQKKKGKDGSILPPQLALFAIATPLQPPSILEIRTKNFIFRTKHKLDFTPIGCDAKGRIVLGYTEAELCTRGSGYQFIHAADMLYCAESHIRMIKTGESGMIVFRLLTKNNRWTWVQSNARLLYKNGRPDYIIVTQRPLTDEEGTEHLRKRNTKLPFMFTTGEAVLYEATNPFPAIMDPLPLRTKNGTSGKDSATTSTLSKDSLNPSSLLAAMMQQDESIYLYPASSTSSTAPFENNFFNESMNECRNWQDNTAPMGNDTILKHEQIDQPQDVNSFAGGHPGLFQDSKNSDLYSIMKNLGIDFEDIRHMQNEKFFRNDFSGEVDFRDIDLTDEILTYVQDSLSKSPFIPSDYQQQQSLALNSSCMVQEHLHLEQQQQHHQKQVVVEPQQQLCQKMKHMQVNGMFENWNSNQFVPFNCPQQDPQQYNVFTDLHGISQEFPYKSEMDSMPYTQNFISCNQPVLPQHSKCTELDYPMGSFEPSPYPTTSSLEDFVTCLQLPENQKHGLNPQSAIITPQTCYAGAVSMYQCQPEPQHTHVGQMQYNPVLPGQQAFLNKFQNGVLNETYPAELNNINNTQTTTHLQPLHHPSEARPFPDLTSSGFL
Experiment: DRE-Luciferase Reporter Assay, HepG2 AhR-Lucia reporter cells
Type: cell-based
Conditions: with AHR activating ligand at EC50, read-out: HepG2-Luc IC50
Outline: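 DRE-luciferase reporter cells (e.g. HepG2 AhR-Lucia, 20000 cells) treated with antagonist log dilutions from 100 uM, then an AHR agonist (e.g. TCDD, kynurenine, ITE, FICZ) at its EC50 added after 1 hr. Secreted luciferase measured after 24 or 48 h (QUANTI-Luc); IC50 = concentration halving luciferase activity.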

Row | SMILES | IC50 [nM]
1 | C[C@@H](CO)n1cnc2c(N3CCCCC3)nc(-c3ccc(Cl)cc3)cc2c1=O [Compound 177, (S)-6-(4-chlorophenyl)-3-(1-hydroxypropan-2-yl)-8-(piperidin-1-yl)pyrido[3,4-d]pyrimidin-4(3H)-one] | < 100
2 | Cn1cc(-c2nc(-c3ccc(C(F)(F)F)nc3)cc3c(=O)n(C[C@H](O)C(F)(F)F)cnc23)cn1 [Compound 111, (S)-8-(1-methyl-1H-pyrazol-4-yl)-3-(3,3,3-trifluoro-2-hydroxypropyl)-6-(6-(trifluoromethyl)pyridin-3-y1)pyrido[3,4-d]pyrimidin-4(3H)-one] | < 100
3 | C[C@@H](CO)n1cnc2c(-c3cccnc3)nc(-c3cnc(C(F)(F)F)s3)cc2c1=O [Compound 85] | < 100
4 | C[C@@H](CO)n1cnc2c(-c3cnn(C)c3)nc(-c3cnc(C(F)(F)F)nc3)cc2c1=O [Compound 95] | < 100
5 | C[C@@H](CO)n1cnc2c(-c3cnsc3)nc(-c3ccc(C(F)(F)F)nc3)cc2c1=O [Compound 55] | < 100
6 | Cn1cc(-c2nc(-c3ccc(C4CC4)nc3)cc3c(=O)n(CC(C)(C)O)cnc23)cn1 [Compound 82] | < 100
7 | C[C@H](O)Cn1cnc2c(-c3cnn(C)c3)nc(-c3ccc(C(F)(F)F)nc3)cc2c1=O [Compound 109, (S)-3-(2-hydroxypropyl)-8-(1-methyl-1H-pyrazol-4-yl)-6-(6-(trifluoromethyl)pyridin-3-yl)pyrido[3,4-d]pyrimidin-4(3H)-one] | < 100
8 | C[C@@H](CO)n1cnc2c(-n3ccnc3)nc(-c3ccc(C(F)(F)F)cn3)cc2c1=O [Compound 162, (S)-3-(1-hydroxypropan-2-yl)-8-(1H-imidazol-1-yl)-6-(5-(trifluoromethyl)pyridin-2-yl)pyrido[3,4-d]pyrimidin-4(3H)-one] | < 100
9 | C[C@@H](CO)n1cnc2c(-c3cccnc3)nc(-c3cnc(C(F)(F)F)nc3)cc2c1=O [Compound 86] | < 100
10 | C[C@@H](CO)n1cnc2c(-c3cnn(C)c3)nc(-c3ccc(OC(F)(F)F)cc3)cc2c1=O [Compound 25] | < 100
11 | CC(C)(O)Cn1cnc2c(-n3ccnc3)nc(-c3ccc(C(F)(F)F)cn3)cc2c1=O [Compound 160, 3-(2-hydroxy-2-methylpropyl)-8-(1H-imidazol-1-yl)-6-(5-(trifluoromethyl)pyridin-2-yl)pyrido[3,4-d]pyrimidin-4(3H)-one] | < 100
12 | O=c1c2cc(-c3ccc(Cl)cc3)nc(-c3cccnc3)c2ncn1[C@@H]1COC[C@H]1O [Compound 152, 6-(4-chlorophenyl)-3-((3R,4S)-4-hydroxytetrahydrofuran-3-yl)-8-(pyridin-3-yl)pyrido[3,4-d]pyrimidin-4(3H)-one] | < 100
13 | C[C@@H](CO)n1cnc2c(-c3cccnc3)nc(-c3cnc(C4CC4)s3)cc2c1=O [Compound 66] | < 100
14 | CC(C)(O)Cn1cnc2c(-c3cccnc3)nc(-c3ccc(C4CC4)nc3)cc2c1=O [Compound 81] | < 100
15 | CC(C)(O)Cn1cnc2c(-c3cn[nH]c3)nc(-c3ccc(C(F)(F)F)nc3)cc2c1=O [Compound 51] | < 100
16 | Cn1cc(-c2nc(-c3ccc(C(F)(F)F)nc3)cc3c(=O)n(C[C@@H](O)C(F)(F)F)cnc23)cn1 [Compound 110, (R)-8-(1-methyl-1H-pyrazol-4-yl)-3-(3,3,3-trifluoro-2-hydroxypropyl)-6-(6-(trifluoromethyl)pyridin-3-yl)pyrido[3,4-d]pyrimidin-4(3H)-one] | < 100
17 | O=c1c2cc(-c3ccc(Cl)cc3)nc(-c3cccnc3)c2ncn1[C@@H]1COC[C@@H]1O (stereo in doubt) [Compound 71] | < 100
18 | Cn1cc(-c2nc(-c3cnc(C(F)(F)F)nc3)cc3c(=O)n(CC(C)(C)O)cnc23)cn1 [Compound 99] | < 100
19 | C[C@H](n1cnc2c(-c3cccnc3)nc(-c3cccnc3)cc2c1=O)C(C)(C)O [Compound 34] | < 100
20 | CC(C)(O)Cn1cnc2c(-c3cnsc3)nc(-c3ccc(C(F)(F)F)nc3)cc2c1=O [Compound 54] | < 100

More lines, now with the values ahead:

Row | IC50 [nM] | SMILES
21 | < 100 | O=c1c2cc(-c3ccc(C(F)(F)F)nc3)nc(-c3cccnc3)c2ncn1[C@H]1COC[C@@H]1O [Compound 117]
22 | < 100 | Cn1cc(-c2nc(-c3ccc(Cl)cc3)cc3c(=O)n([C@H]4COC[C@H]4O)cnc23)cn1 [Compound 92]
23 | < 100 | CNC(=O)[C@H](C)n1cnc2c(-c3cccnc3)nc(-c3ccc(C(F)(F)F)nc3)cc2c1=O [Compound 156, (S)—N-methyl-2-(4-oxo-8-(pyridin-3-yl)-6-(6-(trifluoromethyl)pyridin-3-yl)pyrido[3,4-d]pyrimidin-3(4H)-yl)propanamide]
24 | < 100 | O=c1c2cc(-c3ccc(C(F)(F)F)cn3)nc(-c3cccnc3)c2ncn1[C@@H]1COC[C@H]1O [Compound 140, 3-((3R,4S)-4-hydroxytetrahydrofuran-3-yl)-8-(pyridin-3-yl)-6-(5-(trifluoromethyl)pyridin-2-yl)pyrido[3,4-d]pyrimidin-4(3H)-one]
25 | < 100 | C[C@@H](CO)n1cnc2c(-c3cnsc3)nc(-c3ccc(C(F)(F)F)cn3)cc2c1=O [Compound 102, (S)-3-(1-hydroxypropan-2-y1)-8-(isothiazol-4-yl)-6-(5-(trifluoromethyl)pyridin-2-yl)pyrido[3,4-d]pyrimidin-4(3H)-one]
26 | < 100 | Cn1cc(-c2nc(-c3ccc(C(F)(F)F)nc3)cc3c(=O)n([C@@H]4COC[C@H]4O)cnc23)cn1 [Compound 115, 3-((3R,4S)-4-hydroxytetrahydrofuran-3-y1)-8-(1-methyl-1H-pyrazol-4-y1)-6-(6-(trifluoromethyl)pyridin-3-yl)pyrido[3,4-d]pyrimidin-4(3H)-one]
27 | < 100 | O=c1c2cc(-c3ccc(C(F)(F)F)nc3)nc(-c3cccnc3)c2ncn1C[C@@H](O)C(F)(F)F [Compound 122, (R)-8-(pyridin-3-yl)-3-(3,3,3-trifluoro-2-hydroxypropyl)-6-(6-(trifluoromethyl)pyridin-3-yl)pyrido[3,4-d]pyrimidin-4(3H)-one]
28 | < 100 | O=c1c2cc(-c3ccc(C(F)(F)F)nc3)nc(-c3cccnc3)c2ncn1[C@H]1COC[C@H]1O [Compound 126, 3-((3S,4S)-4-hydroxytetrahydrofuran-3-yl)-8-(pyridin-3-yl)-6-(6-(trifluoromethyl)pyridin-3-yl)pyrido[3,4-d]pyrimidin-4(3H)-one]
29 | < 100 | O=c1c2cc(-c3ccc(C(F)(F)F)cn3)nc(-c3cccnc3)c2ncn1[C@H]1COC[C@H]1O [Compound 145, 3-((3S,4S)-4-hydroxytetrahydrofuran-3-yl)-8-(pyridin-3-yl)-6-(5-(trifluoromethyl)pyridin-2-yl)pyrido[3,4-d]pyrimidin-4(3H)-one]
30 | < 100 | C[C@@H](CO)n1cnc2c(-c3cccnc3)nc(-c3ccc(OC(F)(F)F)nc3)cc2c1=O [Compound 50]
31 | < 100 | Cn1cc(-c2nc(-c3ccc(Cl)cc3)cc3c(=O)n([C@H]4COC[C@@H]4O)cnc23)cn1 [Compound 116]
32 | < 100 | O=c1c2cc(-c3ccc(C(F)(F)F)cn3)nc(-c3cccnc3)c2ncn1C[C@@H](O)C(F)(F)F [Compound 154, (R)-8-(pyridin-3-yl)-3-(3,3,3-trifluoro-2-hydroxypropyl)-6-(5-(trifluoromethyl)pyridin-2-yl)pyrido[3,4-d]pyrimidin-4(3H)-one]
33 | < 100 | CC(C)(O)Cn1cnc2c(-c3cnsc3)nc(-c3ccc(C(F)(F)F)cn3)cc2c1=O [Compound 101, 3-(2-hydroxy-2-methylpropyl)-8-(isothiazol-4-yl)-6-(5-(trifluoromethyl)pyridin-2-yl)pyrido[3,4-d]pyrimidin-4(3H)-one]
34 | < 100 | C[C@H](O)Cn1cnc2c(-c3cnn(C)c3)nc(-c3ccc(C(F)(F)F)cn3)cc2c1=O [Compound 142, (S)-3-(2-hydroxypropyl)-8-(1-methyl-1H-pyrazol-4-yl)-6-(5-(trifluoromethyl)pyridin-2-yl)pyrido[3,4-d]pyrimidin-4(3H)-one]
35 | < 100 | Cn1cc(-c2nc(-c3ccc(C(F)(F)F)cn3)cc3c(=O)n([C@H]4COC[C@H]4O)cnc23)cn1 [Compound 151, 3-((3S,4S)-4-hydroxytetrahydrofuran-3-yl)-8-(1-methyl-1H-pyrazol-4-yl)-6-(5-(trifluoromethyl)pyridin-2-yl)pyrido[3,4-d]pyrimidin-4(3H)-one]
36 | < 100 | O=c1c2cc(-c3ccc(C4CC4)nc3)nc(-c3cccnc3)c2ncn1C[C@H](O)C(F)(F)F [Compound 120, (S)-6-(6-cyclopropylpyridin-3-yl)-8-(pyridin-3-yl)-3-(3,3,3-trifluoro-2-hydroxypropyl)pyrido[3,4-d]pyrimidin-4(3H)-one]
